Where a SMILES comes first, the peptide text is derived from it.
Experiments:
[1] = Retention of fluorescently labeled peptide in abdominal cavity (FACS of intraperitoneal macrophages); format: in vivo, mouse; conditions: for stability in vivo: conclusion from FIG. 9 and FIG. 10
Procedure: After intraperitoneal injection of the fluorescently labeled peptide P4 into mice, intraperitoneal macrophages were isolated, and the frequency of fluorescently labeled macrophages was analyzed by FACS to measure the retention time of the peptides in the abdominal cavity, which was shown in FIG. 9.
In addition, the P1, P2, and P4 peptides were labeled with each different fluorescence, and the three types were mixed and administered to normal mice.

[2] = tested on: mouse model with collagen-induced arthritis; assay: Severity of arthritis in mouse model with collagen-induced arthritis; format: in vivo
Procedure: To prepare a mouse model with rheumatoid arthritis, subcutaneous injection (first immunization) was performed on the tail of a group of 8-week-old male ICR normal mice (average weight: 20 g) injected with 50 μg of a mixture obtained by mixing type II collagen with Complete Freund's adjuvant (CFA) and paraffin oil in the same amount. Two weeks later, the same substance was subcutaneously injected into the tail in the same manner to prepare an animal model with rheumatoid arthritis.
In the same manner as in Example 2, the mixture of P1, P2 and P4 peptides (P124) prepared in Example 1 was administered to the skin of mice as an external skin preparation.
In addition, the peptide mixture (P124) was treated as an external skin preparation once a day for 10 consecutive days, the arthritis treatment effect was checked after 5 weeks, and the results were shown in FIG. 5.

[3] = tested on: CD4+CD25+ cells, CD4+CD25+FoxP3+ cells, IL-17+ cells; assay: Flow cytometry (FACS) of cells isolated from treated arthritis mouse model; format: in vivo; design: IL-17: unit not given here
[4] = tested on: mouse animal model with Behcet's disease (HSV type 1 infected ICR mice); assay: Therapeutic effect on skin ulcers and skin inflammation in mouse animal model with Behcet's disease; format: in vivo; conditions: peptides administered respectively; symptoms visually checked; FIG. 1
Procedure: Male ICR mice (4-5 weeks of age) were infected with HSV type 1 (1×10^6, 20 μL) grown in Vero cells as previously reported (S. Sohn et al., Eur J Dermatol, 8 (1): 21-23, 1998). 10 days after the first virus inoculation, the mice were infected twice by inoculating the virus again and monitored for 32 weeks. Animals were treated according to the guidelines provided by Institutional Animal Care and Use Committee (IACUC) of School of Medicine at Ajou University. The study protocol was approved by IACUC (Approval No.: AMC-2016-0010).
Symptoms include skin ulcers, skin pustule, genital ulcers, erythema, mouth ulcers, ear inflammation, arthritis, red eyes (left and right), decreased visual acuity (left and right), weight loss, and facial swelling. Mouth ulcers, genital ulcers, skin ulcers, and eye symptoms were classified as major symptoms while the other symptoms were mild.
Mice showing one or more major symptoms with one mild symptom were considered as BD mice, the score for each symptom was calculated as 1, and the sum of the scores was used to determine the severity of BD. When symptoms disappeared or the size of the lesion was reduced by 20% or more, it was classified as symptom improved state. The disease severity score for BD was calculated based on the BD Activity Index as described in the BD Activity Form (www.behcet.ws/pdf/BehcetsDiseaseActivityForm.pdf). […]

[5] = FACS frequency, Table 1, in % (unit assumed)
[6] = intraperitoneal injection, intraperitoneal macrophages, FIG. 9

In the case of `CC(C)[C@H](NC(=O)[C@H](CCCCN)NC(=O)[C@H](CC(N)=O)NC(=O)[C@H](CS)NC(=O)[C@@H](N)Cc1ccc(O)cc1)C(=O)N[C@@H](Cc1c[nH]cn1)C(=O)N[C@H](C(=O)N[C@@H](CS)C(=O)N[C@@H](CCCNC(=N)N)C(=O)N[C@@H](CC(N)=O)C(=O)NCC(=O)O)[C@@H](C)O` [P2, YCNKVHTCRNG] (H-YCNKVHTCRNG-OH; N-terminus and C-terminus assumed), the stability in vivo [1] is reported as “stably maintained”.

For `CN(Cc1cnc2nc(N)nc(N)c2n1)c1ccc(C(=O)N[C@@H](CCC(=O)O)C(=O)O)cc1` [Methotrexate], the “duration of the effect on severity score for arthritis” value ([2]; FIG. 4, 10 weeks follow-up) was “effect decreased after 7 weeks”, the “severity score for arthritis” value ([2]; external skin preparation, compared to PBS control group, followed 10 weeks, FIG. 4) was “reduction in the severity score for arthritis was also shown” and the IL-17 ([3]; FACS frequency, Table 1) was 13.15 ± 1.34. The “CD4 + CD25+” value [3, 5] was 3.7 ± 1.13, the “CD4 + CD25 + FoxP3+” value [3, 5] was 1.45 ± 0.49 and the ROR-gammaT ([3]; FACS, Table 1) was 6.2 ± 0.42.

With `CC[C@H](C)[C@H](NC(=O)[C@@H](N)CC(C)C)C(=O)N[C@@H](CS)C(=O)N1CCC[C@H]1C(=O)N[C@@H](CCC(=O)O)C(=O)N[C@@H](CCCCN)C(=O)N[C@@H](Cc1ccc(O)cc1)C(=O)N[C@@H](CS)C(=O)N[C@@H](CC(N)=O)C(=O)N[C@@H](CCCCN)C(=O)N[C@H](C(=O)N[C@@H](Cc1c[nH]cn1)C(=O)N[C@H](C(=O)O)[C@@H](C)O)C(C)C` [P1, LICPEKYCNKVHT] (H-LICPEKYCNKVHT-OH; N-terminus and C-terminus assumed) the stability in vivo [1] was “stably maintained”.

With ENICFKRFYEGNLLGKRYPRGCA [P5] the “skin ulcers and skin inflammation” value [4] was “alleviated”.

For `CC[C@H](C)[C@H](NC(=O)[C@H](CC(N)=O)NC(=O)[C@H](CCC(=O)O)NC(=O)CNC(=O)[C@H](CC(N)=O)NC(=O)[C@H](CCCNC(=N)N)NC(=O)[C@H](CS)NC(=O)[C@@H](NC(=O)[C@@H](N)Cc1c[nH]cn1)[C@@H](C)O)C(=O)N[C@@H](CS)C(=O)N[C@@H](Cc1ccccc1)C(=O)O` [P4, HTCRNGENICF] (H-HTCRNGENICF-OH; N-terminus and C-terminus assumed), the stability in vivo [1] was “stably maintained”, the “time at which frequency of cells including the peptide was the highest” value [1, 6] was 24 h and the “time up to which frequency of cells including the peptide was maintained” value [1, 6] was “up to 72 hours”.

From patent publication US12545706B2, “Pharmaceutical composition for preventing or treating Behcet's disease and rheumatoid arthritis, containing peptide or mixture thereof as active ingredient” (AJOU UNIVERSITY INDUSTRY-ACADEMIC COOPERATION FOUNDATION, priority 2019, dated 2026)
